In patent US20200253929A1, “TREATMENT OF EPILEPSY” (priority 2017, published 2020):
pIC50: −log10 of the molar value.

Tests used:
CYP2C9 = target: T1, CYP2C9 (Homo sapiens, UniProt P11712); assay: CYP450 enzyme inhibition assay, CYP2C9; assay type: in vitro ADME; settings: human liver microsomes; for pIC50: diclofenac probe
T1 construct: containing Human Liver Microsomes (HLM) (0.5 mg/mL); from tissue; host or cells: human liver microsomes
Protocol: Protocol was based on literature [Perez-Del Palacio et al. (2017) Front Pharmacol 8, 202]. Assessment of CYP450 inhibition was conducted in 96-well plate format at 37° C. Test compounds were dissolved in DMSO/acetonitrile (2 μL) and diluted in 98 μL NADPH solution (2 mM). Reactions were started by addition of 100 μL potassium phosphate buffer (200 mM, pH 7.4) containing Human Liver Microsomes (HLM) (0.5 mg/mL). Probe reactions for CYP3A4, CYP2D6 and CYP2C9 were conducted with 50 μM testosterone, 22 μM dextromethorphan and 10 μM diclofenac for 15 min. Reactions were terminated with the addition of a quench solution (90 μL) of acetonitrile containing internal standards for LC-MS/MS determination (60 ppb cortisone, 100 ppb 4′-hydroxydiclofenac 13C6, 60 ppb levallorphan).

zebrafish larvae = assay: Zebrafish toxicity evaluation (maximum tolerated concentration); assay type: in vivo, Danio rerio; settings: up to 18 hours exposure, 100 μg/mL used where no MTC was reached
Protocol: In case no MTC was reached, 100 μg/mL was used as the test concentration. In line with studies previously reported [Baraban et al. (2005) Neurosci 131, 759-768; Afrikanova et al. (2013) PLoS One 8, e54166], addition of the GABAA-receptor antagonist PTZ to the swimming water of 7 days post-fertilization (dpf) zebrafish larvae strongly elevated larval locomotion (p≤0.001) (FIGS. 2 and 3) as a result of induced seizures (or seizure-like behavior) that were recognized as typical high-speed swimming, whirlpool-like circling, clonus-like seizures, and loss of posture, as previously described in Baraban et al cited above.
Maximum tolerated concentration (MTC) was determined prior to further experiments and used as the highest test concentration. MTC was investigated by exposing 12 larvae of 6 days post-fertilization (dpf) to a range of concentrations in a 100 μL volume during 18 hours. The following parameters were investigated after 2 and 18 hours of exposure: touch response, morphology, posture, edema, signs of necrosis, swim bladder, and heartbeat. […] In case MTC was not reached, 100 μg/mL was used as the highest test concentration.

[1] = Metabolic stability assay (hepatic clearance); assay type: in vitro ADME; settings: human liver microsomes; for Hepatic clearance / Hepatic clearance t1/2 (half-life): 1 μM
Protocol: The assay was performed with a mixture of test compounds (1 μM), NADPH (4 mM) and Human Liver Microsomes (HLM) (1 mg/mL) incubated at 37° C. Reactions were quenched at 0, 15, 30, 45, 60, and 90 min, using an equal volume of acetonitrile and then diluted 1:1 with water prior to analysis by LC-MS/MS. The analysis was performed using an Agilent Series 1290 LC system (Agilent Technologies, Santa Clara, Calif., USA) using a Supelco Discovery HS C18 (2.1×50 mm) 3 µm column that was held at 30° C. Solvent A contained water with 0.1% formic acid and solvent B contained acetonitrile with 0.1% formic acid, and the flow rate was set at 400 μL/min. The gradient elution was performed as follows: 0-0.5 min 0% eluent B; 0.5-7 min 100% eluent B; 7-9 min 100% eluent B; 9-9.2 min 0% eluent B; and 9.2-10.5 min 0% eluent B. An API 4000 mass spectrometer in positive ESI mode (AB SCIEX, Concord, ON, Canada) was used with a generic method for data acquisition on all compounds. Data processing was performed using MultiQuant Software (AB SCIEX, Concord, ON, Canada) to process the data. Peak areas were used to plot the Ln % remaining relative to time (t)=0. The slope of the natural log of the percent remaining versus time was calculated to determine the first-order rate constant (k) and the half-life (t1/2) of the test compounds according to the following equation: t1/2=0.693/k (min)

[2] = Plasma protein binding assay (rapid equilibrium dialysis); assay type: in vitro ADME; settings: for Protein binding: rapid equilibrium dialysis, 5 μM, 5 h
Protocol: Protocol was based on literature [Kumar Singh et al. (2012)1 Bioeq. Bioay. S14]. Rapid equilibrium dialysis was performed with RED device inserts (Thermo Scientific, Meridian Rd., Rockford, Ill.) containing dialysis membrane with a molecular weight cut-off of 8,000 Daltons. Serum (200 μL) containing test compound (5 μM) was added to the serum chamber of the insert and 350 μL of buffer was added to the buffer chamber of the insert. Dialysis was done at 37° C. with shaking at 100 rpm for 5 h. Following dialysis, an aliquot of 50 μL was removed from each well (plasma and buffer side) and diluted with an equal volume of opposite matrix to nullify the matrix effect. Then a fraction (50 μL) of each dialyzed sample was crashed with 150 μL of acetonitrile containing internal standard and vortexed for 1 min. The samples were centrifuged at 13300 rpm at 4° C. for 12 min and 100 μL of supernatant was used for LC-MS/MS analysis.

Nav1.5 channel = target: T2, Nav1.5 channel (Homo sapiens, UniProt Q14524); assay: Cardiotoxicity fluorescence-based assay, Nav1.5 channel; assay type: cell-based; settings: HEK293 cells
T2 construct: expressed in transfected cells; host or cells: HEK293
T2 sequence (Q14524 whole entry): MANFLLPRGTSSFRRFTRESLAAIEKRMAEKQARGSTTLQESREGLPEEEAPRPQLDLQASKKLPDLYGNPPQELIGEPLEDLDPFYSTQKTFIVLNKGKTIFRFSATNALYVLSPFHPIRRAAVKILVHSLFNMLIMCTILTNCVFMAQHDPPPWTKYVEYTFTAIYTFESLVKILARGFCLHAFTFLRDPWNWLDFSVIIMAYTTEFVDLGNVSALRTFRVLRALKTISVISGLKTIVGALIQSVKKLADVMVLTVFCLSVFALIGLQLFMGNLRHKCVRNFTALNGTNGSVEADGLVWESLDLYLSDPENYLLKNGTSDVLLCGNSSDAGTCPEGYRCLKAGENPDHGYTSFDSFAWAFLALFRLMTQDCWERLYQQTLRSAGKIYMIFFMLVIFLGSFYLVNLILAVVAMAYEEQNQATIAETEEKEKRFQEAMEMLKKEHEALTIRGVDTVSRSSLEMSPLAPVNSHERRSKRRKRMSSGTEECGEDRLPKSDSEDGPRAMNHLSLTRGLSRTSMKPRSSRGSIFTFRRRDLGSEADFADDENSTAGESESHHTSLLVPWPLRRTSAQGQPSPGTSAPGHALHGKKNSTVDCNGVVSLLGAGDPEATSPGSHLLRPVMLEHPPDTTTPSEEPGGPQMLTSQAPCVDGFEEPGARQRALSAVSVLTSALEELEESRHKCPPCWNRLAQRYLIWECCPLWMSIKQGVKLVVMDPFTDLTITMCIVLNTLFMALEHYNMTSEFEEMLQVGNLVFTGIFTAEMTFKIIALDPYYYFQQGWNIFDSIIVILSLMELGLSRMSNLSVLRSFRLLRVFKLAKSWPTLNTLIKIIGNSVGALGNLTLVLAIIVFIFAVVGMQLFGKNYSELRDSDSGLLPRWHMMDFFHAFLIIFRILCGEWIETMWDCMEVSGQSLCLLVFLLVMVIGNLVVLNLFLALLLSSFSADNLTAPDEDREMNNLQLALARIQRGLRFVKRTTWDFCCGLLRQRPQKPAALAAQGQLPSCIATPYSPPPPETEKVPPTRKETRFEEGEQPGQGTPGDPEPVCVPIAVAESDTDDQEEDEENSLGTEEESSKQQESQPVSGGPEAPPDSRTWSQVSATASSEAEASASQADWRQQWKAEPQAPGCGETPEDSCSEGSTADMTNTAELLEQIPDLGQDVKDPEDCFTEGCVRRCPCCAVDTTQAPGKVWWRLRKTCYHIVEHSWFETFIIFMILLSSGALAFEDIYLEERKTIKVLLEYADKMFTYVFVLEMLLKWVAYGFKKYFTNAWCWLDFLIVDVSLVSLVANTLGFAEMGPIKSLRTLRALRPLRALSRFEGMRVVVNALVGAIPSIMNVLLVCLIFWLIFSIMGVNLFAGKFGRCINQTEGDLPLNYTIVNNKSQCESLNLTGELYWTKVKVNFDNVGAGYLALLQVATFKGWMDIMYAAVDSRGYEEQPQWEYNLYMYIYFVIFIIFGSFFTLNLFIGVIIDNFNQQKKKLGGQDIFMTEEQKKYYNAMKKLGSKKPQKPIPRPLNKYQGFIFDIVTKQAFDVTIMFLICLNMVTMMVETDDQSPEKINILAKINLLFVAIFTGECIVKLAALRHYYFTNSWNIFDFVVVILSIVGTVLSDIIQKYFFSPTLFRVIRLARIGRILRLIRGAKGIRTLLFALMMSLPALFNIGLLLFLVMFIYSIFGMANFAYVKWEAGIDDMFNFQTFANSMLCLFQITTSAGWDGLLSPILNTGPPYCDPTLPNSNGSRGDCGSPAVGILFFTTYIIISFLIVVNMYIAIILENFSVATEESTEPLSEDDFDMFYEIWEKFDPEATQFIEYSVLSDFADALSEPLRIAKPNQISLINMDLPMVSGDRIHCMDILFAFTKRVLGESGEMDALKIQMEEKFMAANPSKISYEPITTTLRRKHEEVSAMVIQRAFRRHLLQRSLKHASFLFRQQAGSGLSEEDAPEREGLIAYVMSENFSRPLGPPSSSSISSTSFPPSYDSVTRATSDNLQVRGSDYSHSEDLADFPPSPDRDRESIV
Protocol: Fluorescence-based assays were performed using HEK293 cell lines that stably express the Nav1.5-channel, Cav1.2-channel or hERG K+-channel, using FMP Red Dye (Molecular Devices), calcium-sensitive fluorescent dye Fluo-4 (Invitrogen) and FIuxOR™ reagent (Invitrogen), respectively, and a FLIPR Tetra High-Throughput Cellular Screening System (Molecular Devices), according to manufacturer's protocols (Molecular Devices). Tetrodotoxin (TTX), israpidine and nicarpidine, and astemizole and haloperidol were used as standard sodium channel, calcium channel, and hERG channel blockers. Data were analyzed using Genedata Screener.

T1 sequence (P11712 whole entry): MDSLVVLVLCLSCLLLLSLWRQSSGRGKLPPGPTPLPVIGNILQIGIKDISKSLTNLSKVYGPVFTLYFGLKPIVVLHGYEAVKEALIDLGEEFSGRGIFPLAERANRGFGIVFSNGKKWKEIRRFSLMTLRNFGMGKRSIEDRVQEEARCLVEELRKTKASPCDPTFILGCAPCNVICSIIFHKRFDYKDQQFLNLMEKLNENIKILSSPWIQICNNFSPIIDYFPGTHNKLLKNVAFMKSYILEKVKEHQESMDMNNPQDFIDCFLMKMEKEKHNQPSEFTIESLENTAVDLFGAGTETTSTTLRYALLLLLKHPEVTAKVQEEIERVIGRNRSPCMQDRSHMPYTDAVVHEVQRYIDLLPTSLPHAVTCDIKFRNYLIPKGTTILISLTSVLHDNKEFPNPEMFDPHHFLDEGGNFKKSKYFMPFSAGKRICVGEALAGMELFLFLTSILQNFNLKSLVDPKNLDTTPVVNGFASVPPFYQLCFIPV

Row | SMILES | CYP2C9, effect (CYP2C9) | pIC50 (CYP2C9) | MTC (maximum tolerated concentration) (zebrafish larvae) | Hepatic clearance, rating [1] | Hepatic clearance [1] | Hepatic clearance t1/2 (half-life) [1] | Hepatic clearance t1/2 (half-life) ([1]; listed as Azaspirofuran A) | Protein binding assay recovery [2] | Protein binding, percentage of free drug rating [2] | Protein binding [2] | Protein binding ([2]; listed as Azaspirofuran A) | Cardiotoxicity Nav1.5 channel, effect (Nav1.5 channel) | pIC50 (Nav1.5 channel) | Hepatic clearance t1/2 (half-life) ([1]; listed as Pseurotin A2) | Protein binding ([2]; listed as Pseurotin A2)
1 | CCc1ccc(C2=C(C)C(=O)C3(O2)C(=O)NC(OC)(C(=O)c2ccccc2)C3O)o1 (centres unmarked) [azaspirofuran A] | Weak | 4.33 | 12.5 µg/mL | Medium | 20.17 μL/ μL/min/mg protein | 33 min | 33.12 min | 66.7% | Low | 95% | 95.42% | Low | 4.41 | – | –
2 | CC/C=C\[C@H](O)[C@H](O)C1=C(C)C(=O)[C@]2(O1)C(=O)N[C@](OC)(C(=O)c1ccccc1)[C@H]2O [pseurotin A2] | No effect | < 4.06 | 12.5 µg/mL | Low | <8.6 μL/ μL/min/mg protein | > 60 min | – | 100% | High | 37% | – | No effect | < 4.30 | > 60 min | 36.53%
